In general, IC50 refers to the point on the concentration scale where inhibition reaches its midpoint.

Test [1] deals with acute myocardial infarction in rats. Nature of the test: Acute myocardial infarction in rats (coronary ligation, TTC staining, pathohistology). The settings on record: for myocardial infarction area (ischemic area %): individual animals. The test is classed as in vivo, rat. Here is the method:
Model preparing method: 30 SD rats (Shanghai University of Traditional Chinese Medicine Experimental Animal Center), weight: 320-370 g; rat was treated with anesthesia with pentobarbital (35 mg/kg), supine fixing; neck midline incision, separating trachea, tracheotomy, inserting a breathing tube, adjusting a frequency and tidal volume of a ventilator; median sternotomy thoracotomy (3-4 intercostal), using thin surgical needle and line six for starting at a left atrial appendage, and ligation at pulmonary cone. Successful standard thereof was that: observing with naked eyes (anterior descending artery blood supply area was darken or pale). Chest was quickly closed. For the sham group, the line passed the left anterior descending coronary artery bypass without ligation.
TTC staining: rat hearts were frozen at −20° C., and were taken out after being hard; the rat hearts were left-coronally excised into 5-6 pieces at a thickness of 3-4 mm. Then the rat hearts were placed in 0.5% TTC solution, and incubated at 37° C. for 15 min. The pieces were taken out and fixed in 4% formaldehyde solution.
The hearts were cut according to two different colors and drained water with filter paper before weighing. Calculation formula was as follows: ischemic area (%)=[…]×100%. Meanwhile, the hearts were partly acquired for pathological analysis.
Control group: six rats, administered with 0.9% physiological saline (NS) after surgery.
Sham operation group: six rats, opening chest and passing line without ligation.
Positive medicine group: six rats, administered with ticagrelor (4.1 mg/kg) after surgery.
4 mg/kg Fc treatment group: six rats, administered with Fc (4 mg/kg) after surgery.
12 mg/kg Fc treatment group: six rats, administered with Fc (12 mg/kg) after surgery.

Test [2] relates to rat plasma. Nature of the test: Blood coagulation index APTT in rat plasma. Format: biochemical. From the text: (§1) 2.1.3.2 Four indexes of blood coagulation: i) Prothrombin time (PT) mainly reflects extrinsic coagulation conditions. Its value is increased when the levels of coagulation factor IX and XI in plasma are reduced, which usually occurs in hemophilia, hemophilia B and factor XI deficiency patients. Conversely, the reduction of it is seen in hypercoagulable state, when the procoagulant substances get into blood and the activity of coagulation factors is increased. ii) Activated partial thromboplastin time (APTT) reflects mainly intrinsic coagulation conditions. Its value is changed under the similar condition as PT. iii) Thrombin time (TT) mainly reflects the abnormality in the conversion of fibrinogen into fibrin. Its value is elevated in DIC hyperfibrinolysis period, afibrinogenemia and hemoglobin hyperlipidemia, and when degradation products (FDPs) of blood fibrin are increased. iv) Fibrinogen (Fibrinogen, FIB) mainly reflects the content of fibrinogen in plasma. Generally, its concentration is elevated in acute myocardial infarction. The reduction of it is observed in DIC dissolution of low consumption of coagulation, primary fibrinolysis, severe hepatitis, hepatic cirrhosis.

In test [3] the test system is platelet. Nature of the test: In vitro platelet aggregation assay (ADP-induced, nephelometry). Format: cell-based, rat. Here is the method:
2.1.1 In vitro platelet aggregation assay: blood samples were placed in a centrifuge tube pre-coated with sodium citrate and centrifuged at 100 g for 5 min. The supernatant was collected and designated as rich platelet (PRP). After addition of prostacyclin (2 μg/ml), PRP was centrifuged at 700 g for 5 min and washed twice with 0.9% saline. The washed platelets were re-suspended in Tyrode buffer and diluted at a density of 4×10^8 cells/ml for further utilization. Platelet aggregation assay was provided according to a nephelometry method: platelet plasma was placed in cuvette; after addition of a inducing agent (ADP: 5-adenosine diphosphate disodium salt: 1×10^−4 mol/L), the platelet plasma was stirred with magnetic particles, wherein platelet was gradually aggregated, plasma turbidity was reduced, and transmittance was increased. Changes were recorded for drawing a dynamic curve of platelet aggregation. Aggregation rate and transmittance for PRP were regarded as 0; aggregation rate and transmittance of suspension were regarded as 100%. A platelet aggregation instrument was used for automatic measurement, recording, and drawing the platelet aggregation curve. For judging inhibiting or promoting of aggregation, it was mainly depending on whether synergy or antagonism happened with the inducing agent; wherein synergy was to promote platelet aggregation, antagonism was to inhibit platelet aggregation.
Blank control group: 0.9% physiological saline (NS).
Model group: adenosine diphosphate (ADP) (10 mM).
Positive control group: clopidogrel (5 mM).
Treatment groups: six rats for each group, Fc dissolved in double distilled water (prepared with different concentrations).

The test system of test [4] is standard human plasma. The experiment in a line: Four indexes of blood coagulation (APTT, PT), human. The test is classed as biochemical. Particulars: 80 μg/ml.
From the text: Notoginsenoside Fc (molecular weight 1211.38, HPLC purity≧99%, from Institute of Chinese Materia Medica), clopidogrel (molecular weight 419.90, HPLC purity≧98%, from National Institutes for Drug Control), standard human plasma, reagents for measurement of four indexes of blood coagulation (from Siemens, Germany), and adenosine diphosphate (ADP) (from Sigma, USA).
as §1, with “Generally, its concentration is elevated in acute myocardial infarction. The reduction of it is observed in DIC dissolution of low consumption of coagulation, primary fibrinolysis, severe hepatitis, hepatic cirrhosis.” left out

Test [5] has as its system platelet thrombus. The experiment in a line: Whole animal thrombogenesis assay (extracorporeal circulation model, thrombus weight). Particulars: rats, 8.1 mg/kg intravenous, extracorporeal circulation started 5 min later, 15 min, blank control 37.2 mg. Format: in vivo, rat. From the text: 2.1.2 Whole animal thrombogenesis assay: when arterial blood platelets contact a rough surface of a wire, the platelets are adhered to the wire and form platelet thrombus on a surface thereof. When platelet adhesion and aggregation function is suppressed, thrombus is light. Therefore, thrombus weight can measure platelet adhesion and aggregation functions.
Referring to FIG. 3, effect of the notoginsenoside Fc on the platelet aggregation function is illustrated. […] In the extracorporeal circulation model, the rats were intravenous administered with Fc at dose of 8.1 mg/kg. Five minutes later, the extracorporeal circulation was initiated and stopped after fifteen minutes. The thrombus formed on the thread was weighed. Significant difference was found between the blank control group and the Fc treatment group (**P<0.01).

In test [6] the test system is rat tail bleeding. The experiment in a line: Bleeding time assay (rat tail transection). The settings on record: rats; vs control. The test is classed as in vivo. From the text:
2.1.3.1 Bleeding time assay: rat tail was transected 0.5 cm from the tip to induce bleeding. And the bleeding time was defined as the time from the start of transection to bleeding cessation. The time at which the flow of blood ceased for 30 s was considered as bleeding cessation.

Values joined by “and” are separate entries in the source; they are usually repeats but may differ in a detail not shown here. Equal entries are not always repeated.

Consider `CCCSc1nc(N[C@@H]2C[C@H]2c2ccc(F)c(F)c2)c2nnn([C@@H]3C[C@H](OCCO)[C@@H](O)[C@H]3O)c2n1` [ticagrelor, reference compound], for which the “myocardial infarction area (ischemic area %)” value in test [1] (ticagrelor 4.1 mg/kg after surgery) was 15.15% and 17% and 13.85% and 14.24% and 16.69% and 16.94%. For the same compound, in test [1] (ticagrelor 4.1 mg/kg, FIG. 11), the pathohistology of myocardium result is given as “arrangement of myocardial cells was disordered in local area”.

As to `CC(C)=CCC[C@](C)(O[C@@H]1O[C@H](CO[C@@H]2OC[C@@H](O)[C@H](O)[C@H]2O)[C@@H](O)[C@H](O)[C@H]1O)[C@H]1CC[C@]2(C)[C@@H]1[C@H](O)C[C@@H]1[C@@]3(C)CC[C@H](O[C@@H]4O[C@H](CO)[C@@H](O)[C@H](O)[C@H]4O[C@@H]4O[C@H](CO)[C@@H](O)[C@H](O)[C@H]4O[C@@H]4OC[C@@H](O)[C@H](O)[C@H]4O)C(C)(C)[C@@H]3CC[C@]12C` [Notoginsenoside Fc, notoginsenoside Fc], the “APTT Time” value in test [2] (5 μg/ml) was determined as 19.20 s; in test [2] (5 μg/ml, listed as Fc), 19 s; in test [2] (10 μg/ml) it was 20.31 s; in test [2] (20 μg/ml) it was 21.61 s; in test [2] (80 μg/ml), 28.25 s; in test [2] (160 μg/ml), 32.65 s. In test [2] (160 μg/ml, listed as Fc), the “APTT Time” value worked out at 32 s. In addition, in test [2] (from 5 μg/ml to 160 μg/ml), the “difference in APTT” value was found to be 13 s. For the same compound, the IC50 in test [3] (ADP-induced, 0.1-40 μM, read-out: IC50 (inhibition of platelet aggregation)) stood at 13.5 µM. The platelet aggregation rate in test [3] (ADP-induced, Fc 200 μM) is listed as 25.8%. For the same compound, the “aggregation rate (%)” value was 47.9% in test [3] (ADP-induced, dose 0.1 μM, listed as Fc); 47.98% in test [3] (ADP-induced, dose 0.1 μM, listed as notoginsenoside Fc); 42.83% in test [3] (ADP-induced, dose 10 μM); 32.33% in test [3] (ADP-induced, dose 20 μM); 31.60% in test [3] (ADP-induced, dose 30 μM); 28.1% in test [3] (ADP-induced, dose 40 μM, listed as Fc). The “aggregation rate (%)” value in test [3] (ADP-induced, dose 40 μM, listed as notoginsenoside Fc) came to 28.13%. Also, the “decreasing amplitude of platelet aggregation rate” value in test [3] (from 0.1 μM to 40 μM) is on record as “up to 19.8%”. Besides, the “myocardial infarction area (ischemic area %)” value in test [1] (Fc 4 mg/kg after surgery) is 17.27% and 22.31% and 22.8% and 19.05% and 19.74% and 16.88%; in test [1] (Fc 12 mg/kg after surgery) it was “reduced more myocardial infarction than the positive medicine group and 5.843% and 3.482% and 5.463% and 4.892% and 5.19% and 4.595%”. Besides, the pathohistology of myocardium result is “arrangement of most of the myocardial cells was normal” in test [1] (Fc 4 mg/kg, FIG. 12) and “arrangement of the myocardial cells was almost normal” in test [1] (Fc 12 mg/kg, FIG. 13). In addition, in test [1] (Fc 4 and 12 mg/kg, FIG. 8, vs control), the “percentage of the infarcted area” value is “significantly reduced”. Moreover, the APTT in test [4] (blank control 91 s) was 126 s. In addition, the PT result in test [4] (vs blank control) is on record as “longer”. In addition, the “weight of thrombus (wet weight)” value was 28.2 mg in test [5] (listed as FC) and “actively reduce thrombogenesis” in test [5] (listed as Fc). In addition, the “rat tail bleeding time” value in test [6] is given as “significantly prolonged”.

For the origin of these results see patent US20150335670A1, “Medical applications of Notoginsenoside Fc” (SHANGHAI UNIVERSITY OF TRADITIONAL CHINESE MEDICINE, priority 2013, published 2015).
